Measured values published in patent US20230085307A1, “PYRIDAZINONE COMPOUND AND HERBICIDE” (NISSAN CHEMICAL CORPORATION, priority 2019, published 2023).

Legend:
southern crabgrass = assay: Test Example 4: herbicidal effect by soil treatment (Table 19, symbol F); format: in vivo, southern crabgrass (Digitaria ciliaris)
Procedure, shortened: (§1)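 In this soil treatment, the formulated compound reached the seeds only through the soil: seeds were buried about 1.5 cm deep in sterilized diluvial soil, then the diluted emulsion was sprayed over the surface. After three weeks at 25° C. to 30° C. in a greenhouse, effects were graded on criteria from an earlier test.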

Japanese bulrush = assay: Test Example 1: herbicidal activity, application before weed generation under submerged conditions (Table 16, symbol B); format: in vivo, Japanese bulrush (Schoenoplectus juncoides); settings: 320 g/ha applied herbicide
Procedure, shortened: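 Submerged Wagner pots (alluvial soil, 4 cm water) sown with weed seeds and planted with 2.5-leaf rice seedlings; emulsifiable concentrate diluted in water applied to water surface on sowing day. Held in greenhouse at 25-30 °C; injury scored 0-5 by herbicidal rate after three weeks.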

persian speedwell [1] = assay: Test Example 5: herbicidal effect by foliage application, plastic box (Table 20, symbol R); format: in vivo, Persian speedwell (Veronica persica); settings: foliage application; for effect on persian speedwell (R): 3 weeks after application
Procedure, shortened: (§2)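 Plants were sown into sterilized diluvial soil under about 1.5 cm cover and kept in a greenhouse at 25° C. to 30° C. Fourteen days on, foliage received an even spray of the diluted emulsion. Herbicidal or crop effect was judged three weeks afterwards.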

velvetleaf = assay: Test Example 5: herbicidal effect by foliage application, plastic box (Table 20, symbol M); format: in vivo, velvetleaf (Abutilon theophrasti); settings: foliage application; for effect on velvetleaf (M): 3 weeks after application
Procedure, shortened: as §2

barnyard grass = assay: Test Example 5: herbicidal effect by foliage application, plastic box (Table 20, symbol H); format: in vivo, barnyard grass (Echinochloa crus-galli); settings: foliage application; for effect on barnyard grass (H): 3 weeks after application
Procedure, shortened: as §2

blackgrass = assay: Test Example 4: herbicidal effect by soil treatment (Table 19, symbol J); format: in vivo, blackgrass (Alopecurus myosuroides)
Procedure, shortened: as §1

wild oat [2] = assay: Test Example 4: herbicidal effect by soil treatment (Table 19, symbol I); format: in vivo, wild oat (Avena fatua)
Procedure, shortened: as §1

wild oat [3] = assay: Test Example 5: herbicidal effect by foliage application, plastic box (Table 20, symbol I); format: in vivo, wild oat (Avena fatua); settings: foliage application; for effect on wild oat (I): 3 weeks after application
Procedure, shortened: as §2

Italian ryegrass = assay: Test Example 4: herbicidal effect by soil treatment (Table 19, symbol K); format: in vivo, Italian ryegrass (Lolium multiflorum)
Procedure, shortened: as §1

windgrass [4] = assay: Test Example 5: herbicidal effect by foliage application, plastic box (Table 20, symbol L); format: in vivo, windgrass (Apera spica-venti); settings: foliage application; for effect on windgrass (L): 3 weeks after application
Procedure, shortened: as §2

windgrass [5] = assay: Test Example 4: herbicidal effect by soil treatment (Table 19, symbol L); format: in vivo, windgrass (Apera spica-venti)
Procedure, shortened: as §1

lambsquarters [6] = assay: Test Example 5: herbicidal effect by foliage application, plastic box (Table 20, symbol O); format: in vivo, lambsquarters (Chenopodium album); settings: foliage application; for effect on lambsquarters (O): 3 weeks after application
Procedure, shortened: as §2

lambsquarters [7] = assay: Test Example 4: herbicidal effect by soil treatment (Table 19, symbol O); format: in vivo, lambsquarters (Chenopodium album)
Procedure, shortened: as §1

Chinese sprangletop = assay: Test Example 3: herbicidal effect by foliage application, Wagner pot (Table 18, symbol D); format: in vivo, chinese sprangletop (Leptochloa chinensis); settings: for herbicidal effect on D (Chinese sprangletop), rating 0-5: 320 g/ha
Procedure, shortened: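 Plants were sown in alluvial soil held under 0.1–0.5 cm standing water and grown 14 days in a greenhouse at 25–30 °C. An emulsifiable formulation, water-diluted to the set dose, was then sprayed onto the foliage, and effects were scored three weeks later using previously defined criteria.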

persian speedwell [8] = assay: Test Example 4: herbicidal effect by soil treatment (Table 19, symbol R); format: in vivo, Persian speedwell (Veronica persica)
Procedure, shortened: as §1

late watergrass = assay: Test Example 2: herbicidal activity, application during weed generation under submerged conditions (Table 17, symbol A); format: in vivo, late watergrass (Echinochloa oryzicola); settings: AAH 320 g/ha; application during weed generation, submerged conditions
Procedure, shortened: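 Alluvial soil in Wagner pots was flooded to 4 cm depth and sown with the three weeds together; pots were kept in a greenhouse at 25° C. to 30° C. At the one to two leaf stage, an emulsion formulation diluted in water to a set rate went onto the water surface; scored three weeks later.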

[9] = amount of applied herbicide 320 g/ha
[10] = AAH 320 g/ha, evaluated three weeks after application
[11] = 320 g/ha, three weeks after application
[12] = 320 g/ha, evaluated three weeks after application

Cc1nn(C)c(=O)c(-c2c(-c3ccc(Cl)cc3)sc3ccc(F)cc23)c1O [Compound No. 2-010, 4-(2-(4-chlorophenyl)-5-fluorobenzo[b]thiophen-3-yl)-5-hydroxy-2,6-dimethylpyridazin-3(2H)-one]
herbicidal effect rating, F: southern crabgrass (southern crabgrass; 320 g/ha): 5 (Herbicidal rate of 90% or more (almost completely withered))
Herbicidal effect on B: Japanese bulrush (grade 0-5) (Japanese bulrush): 3 (Herbicidal rate of 40% or more and less than 70%)
effect on persian speedwell (R) (persian speedwell [1]; 320 g/ha): 5 (Herbicidal rate of 90% or more (almost completely withered))
effect on velvetleaf (M) (velvetleaf; 320 g/ha): 5 (Herbicidal rate of 90% or more (almost completely withered))
effect on barnyard grass (H) (barnyard grass; 320 g/ha): 5 (Herbicidal rate of 90% or more (almost completely withered))
herbicidal effect rating, J: blackgrass (blackgrass; 320 g/ha): 0 (Herbicidal rate of 5% or less (almost no effect))
herbicidal effect rating, I: wild oat (wild oat [2]; 320 g/ha): 1 (Herbicidal rate of 5% or more and less than 20%)
effect on wild oat (I) (wild oat [3]; 320 g/ha): 4 (Herbicidal rate of 70% or more and less than 90%)
herbicidal effect rating, K: Italian ryegrass (Italian ryegrass; 320 g/ha): 5 (Herbicidal rate of 90% or more (almost completely withered))
effect on windgrass (L) (windgrass [4]; 320 g/ha): 5 (Herbicidal rate of 90% or more (almost completely withered))
herbicidal effect rating, L: windgrass (windgrass [5]; 320 g/ha): 0 (Herbicidal rate of 5% or less (almost no effect))
effect on lambsquarters (O) (lambsquarters [6]; 320 g/ha): 5 (Herbicidal rate of 90% or more (almost completely withered))
herbicidal effect rating, O: lambsquarters (lambsquarters [7]; 320 g/ha): 5 (Herbicidal rate of 90% or more (almost completely withered))
herbicidal effect on D (Chinese sprangletop), rating 0-5 (Chinese sprangletop): 4 (Herbicidal rate of 70% or more and less than 90%)
herbicidal effect rating, R: persian speedwell (persian speedwell [8]; 320 g/ha): 5 (Herbicidal rate of 90% or more (almost completely withered))

Cc1nn(C)c(=O)c(-c2c(-c3ccc(OC(F)F)cc3)sc3ccc(F)cc23)c1OC(=O)C1CCCC1 [2-280]
herbicidal effect on F: southern crabgrass (southern crabgrass; [9]): 0 (Herbicidal rate of 5% or less (almost no effect))
Herbicidal effect on B: Japanese bulrush (grade 0-5) (Japanese bulrush): 3 (Herbicidal rate of 40% or more and less than 70%)
R: persian speedwell, herbicidal effect (criteria 0-5) (persian speedwell [1]; [10]): 5 (Herbicidal rate of 90% or more (almost completely withered))
M: velvetleaf, herbicidal effect (criteria 0-5) (velvetleaf; [10]): 5 (Herbicidal rate of 90% or more (almost completely withered))
H: barnyard grass, herbicidal effect (criteria 0-5) (barnyard grass; [10]): 5 (Herbicidal rate of 90% or more (almost completely withered))
herbicidal effect on J: blackgrass (blackgrass; [9]): 1 (Herbicidal rate of 5% or more and less than 20%)
herbicidal effect on I: wild oat (wild oat [2]; [9]): 0 (Herbicidal rate of 5% or less (almost no effect))
I: wild oat, herbicidal effect (criteria 0-5) (wild oat [3]; [10]): 3 (Herbicidal rate of 40% or more and less than 70%)
herbicidal effect on K: Italian ryegrass (Italian ryegrass; [9]): 5 (Herbicidal rate of 90% or more (almost completely withered))
L: windgrass, herbicidal effect (criteria 0-5) (windgrass [4]; [10]): 3 (Herbicidal rate of 40% or more and less than 70%)
herbicidal effect on L: windgrass (windgrass [5]; [9]): 0 (Herbicidal rate of 5% or less (almost no effect))
herbicidal effect rating, A: late watergrass (late watergrass): 4 (Herbicidal rate of 70% or more and less than 90%)
O: lambsquarters, herbicidal effect (criteria 0-5) (lambsquarters [6]; [10]): 5 (Herbicidal rate of 90% or more (almost completely withered))
herbicidal effect on O: lambsquarters (lambsquarters [7]; [9]): 5 (Herbicidal rate of 90% or more (almost completely withered))
herbicidal effect on D: Chinese sprangletop (Chinese sprangletop; [9]): 3 (Herbicidal rate of 40% or more and less than 70%)
herbicidal effect on R: persian speedwell (persian speedwell [8]; [9]): 4 (Herbicidal rate of 70% or more and less than 90%)

CCCOc1ccc(-c2sc3ccccc3c2-c2c(O)c(C)nn(C)c2=O)cc1 [1-019]
herbicidal effect rating, F: southern crabgrass (southern crabgrass; [9]): 0 (Herbicidal rate of 5% or less (almost no effect))
Herbicidal effect on B: Japanese bulrush (grade 0-5) (Japanese bulrush): 5 (Herbicidal rate of 90% or more (almost completely withered))
herbicidal effect grade, R: persian speedwell (persian speedwell [1]; [11]): 5 (Herbicidal rate of 90% or more (almost completely withered))
herbicidal effect grade, M: velvetleaf (velvetleaf; [11]): 5 (Herbicidal rate of 90% or more (almost completely withered))
herbicidal effect grade, H: barnyard grass (barnyard grass; [11]): 5 (Herbicidal rate of 90% or more (almost completely withered))
herbicidal effect rating, J: blackgrass (blackgrass; [9]): 0 (Herbicidal rate of 5% or less (almost no effect))
herbicidal effect rating, I: wild oat (wild oat [2]; [9]): 0 (Herbicidal rate of 5% or less (almost no effect))
herbicidal effect grade, I: wild oat (wild oat [3]; [11]): 3 (Herbicidal rate of 40% or more and less than 70%)
herbicidal effect rating, K: Italian ryegrass (Italian ryegrass; [9]): 3 (Herbicidal rate of 40% or more and less than 70%)
herbicidal effect grade, L: windgrass (windgrass [4]; [11]): 5 (Herbicidal rate of 90% or more (almost completely withered))
herbicidal effect rating, L: windgrass (windgrass [5]; [9]): 0 (Herbicidal rate of 5% or less (almost no effect))
herbicidal effect rating, A: late watergrass (late watergrass): 3 (Herbicidal rate of 40% or more and less than 70%)
herbicidal effect grade, O: lambsquarters (lambsquarters [6]; [11]): 5 (Herbicidal rate of 90% or more (almost completely withered))
herbicidal effect rating, O: lambsquarters (lambsquarters [7]; [9]): 4 (Herbicidal rate of 70% or more and less than 90%)
herbicidal effect on D (Chinese sprangletop), rating 0-5 (Chinese sprangletop): 4 (Herbicidal rate of 70% or more and less than 90%)
herbicidal effect rating, R: persian speedwell (persian speedwell [8]; [9]): 5 (Herbicidal rate of 90% or more (almost completely withered))

COCCOCOc1c(C)nn(C)c(=O)c1-c1c(-c2ccc(OCCC3OCCO3)cc2)sc2ccccc12 [1-224]
F: southern crabgrass, herbicidal effect rating (southern crabgrass; AAH 320 g/ha): 2 (Herbicidal rate of 20% or more and less than 40%)
Herbicidal effect on B: Japanese bulrush (grade 0-5) (Japanese bulrush): 5 (Herbicidal rate of 90% or more (almost completely withered))
effect on persian speedwell (R) (persian speedwell [1]; 320 g/ha): 5 (Herbicidal rate of 90% or more (almost completely withered))
effect on velvetleaf (M) (velvetleaf; 320 g/ha): 5 (Herbicidal rate of 90% or more (almost completely withered))
effect on barnyard grass (H) (barnyard grass; 320 g/ha): 5 (Herbicidal rate of 90% or more (almost completely withered))
J: blackgrass, herbicidal effect rating (blackgrass; AAH 320 g/ha): 0 (Herbicidal rate of 5% or less (almost no effect))
I: wild oat, herbicidal effect rating (wild oat [2]; AAH 320 g/ha): 0 (Herbicidal rate of 5% or less (almost no effect))
effect on wild oat (I) (wild oat [3]; 320 g/ha): 0 (Herbicidal rate of 5% or less (almost no effect))
K: Italian ryegrass, herbicidal effect rating (Italian ryegrass; AAH 320 g/ha): 0 (Herbicidal rate of 5% or less (almost no effect))
effect on windgrass (L) (windgrass [4]; 320 g/ha): 0 (Herbicidal rate of 5% or less (almost no effect))
L: windgrass, herbicidal effect rating (windgrass [5]; AAH 320 g/ha): 0 (Herbicidal rate of 5% or less (almost no effect))
herbicidal effect rating, A: late watergrass (late watergrass): 3 (Herbicidal rate of 40% or more and less than 70%)
effect on lambsquarters (O) (lambsquarters [6]; 320 g/ha): 4 (Herbicidal rate of 70% or more and less than 90%)
O: lambsquarters, herbicidal effect rating (lambsquarters [7]; AAH 320 g/ha): 3 (Herbicidal rate of 40% or more and less than 70%)
herbicidal effect on D (Chinese sprangletop), rating 0-5 (Chinese sprangletop): 3 (Herbicidal rate of 40% or more and less than 70%)
R: persian speedwell, herbicidal effect rating (persian speedwell [8]; AAH 320 g/ha): 3 (Herbicidal rate of 40% or more and less than 70%)

COc1cc(F)ccc1-c1sc2ccc(Cl)cc2c1-c1c(O)c(C)nn(C)c1=O [Compound No. 2-095, 4-(5-chloro-2-(4-fluoro-2-methoxyphenyl)benzo[b]thiophen-3-yl)-5-hydroxy-2,6-dimethylpyridazin-3(2H)-one]
herbicidal effect rating, F: southern crabgrass (southern crabgrass; 320 g/ha): 3 (Herbicidal rate of 40% or more and less than 70%)
Herbicidal effect on B: Japanese bulrush (grade 0-5) (Japanese bulrush): 0 (Herbicidal rate of 5% or less (almost no effect))
herbicidal effect on R: persian speedwell (persian speedwell [1]; [12]): 5 (Herbicidal rate of 90% or more (almost completely withered))
herbicidal effect on M: velvetleaf (velvetleaf; [12]): 5 (Herbicidal rate of 90% or more (almost completely withered))
herbicidal effect on H: barnyard grass (barnyard grass; [12]): 4 (Herbicidal rate of 70% or more and less than 90%)
herbicidal effect rating, J: blackgrass (blackgrass; 320 g/ha): 3 (Herbicidal rate of 40% or more and less than 70%)
herbicidal effect rating, I: wild oat (wild oat [2]; 320 g/ha): 0 (Herbicidal rate of 5% or less (almost no effect))
herbicidal effect on I: wild oat (wild oat [3]; [12]): 4 (Herbicidal rate of 70% or more and less than 90%)
herbicidal effect rating, K: Italian ryegrass (Italian ryegrass; 320 g/ha): 0 (Herbicidal rate of 5% or less (almost no effect))
herbicidal effect on L: windgrass (windgrass [4]; [12]): 5 (Herbicidal rate of 90% or more (almost completely withered))
herbicidal effect rating, L: windgrass (windgrass [5]; 320 g/ha): 3 (Herbicidal rate of 40% or more and less than 70%)
herbicidal effect on O: lambsquarters (lambsquarters [6]; [12]): 5 (Herbicidal rate of 90% or more (almost completely withered))
herbicidal effect rating, O: lambsquarters (lambsquarters [7]; 320 g/ha): 5 (Herbicidal rate of 90% or more (almost completely withered))
herbicidal effect on D (Chinese sprangletop), rating 0-5 (Chinese sprangletop): 4 (Herbicidal rate of 70% or more and less than 90%)
herbicidal effect rating, R: persian speedwell (persian speedwell [8]; 320 g/ha): 4 (Herbicidal rate of 70% or more and less than 90%)
